Test results reported in the NIST ThermoML archive (doi:10.1021/je901020a).

What was measured:
[1] = refractive index (Na D-line) (dimensionless); xn = mol fraction of the nth substance listed; conditions: 101 kPa, Liquid, Standard Abbe refractometry
[2] = xn = mol fraction of the nth substance listed; conditions: 101 kPa, Liquid; for speed of sound: Pulse-echo method

Cc1ccc(C)cc1 [1,4-dimethylbenzene] + C1CCCCC1
Conditions	mass density, [2] [kg/m3]	refractive index, [1]	speed of sound, [2] [m/s]
298.15 K, x2 = 0	856.6	1.49312	1310
298.15 K, x2 = 0.0459	852.9	1.49003	1306
298.15 K, x2 = 0.0952	848.6	1.4866	1301
298.15 K, x2 = 0.1948	840.1	1.47959	1292
298.15 K, x2 = 0.2874	832.3	1.47324	1284
298.15 K, x2 = 0.3929	823	1.4656	1275
298.15 K, x2 = 0.4964	814.1	1.45843	1269
298.15 K, x2 = 0.5938	805.7	1.45142	1263
298.15 K, x2 = 0.6949	797.2	1.44417	1258
298.15 K, x2 = 0.7906	789.5	1.43762	1254
298.15 K, x2 = 0.8927	781.5	1.43057	1253
298.15 K, x2 = 0.9493	777.5	1.42692	1253
313.15 K, x2 = 0	843.5	1.48444	1248
313.15 K, x2 = 0.0494	839.4	1.48145	1243
313.15 K, x2 = 0.1056	834.5	1.47781	1238
313.15 K, x2 = 0.2078	825.8	1.47072	1228
313.15 K, x2 = 0.3149	816.5	1.46341	1218
313.15 K, x2 = 0.4156	807.5	1.45628	1209
313.15 K, x2 = 0.5115	799.2	1.44953	1202
313.15 K, x2 = 0.6083	790.9	1.44272	1195
313.15 K, x2 = 0.7079	782.5	1.43584	1189
313.15 K, x2 = 0.8167	773.7	1.42845	1184
313.15 K, x2 = 0.9109	766.2	1.42167	1182
313.15 K, x2 = 0.9601	762.5	1.41809	1181

C1CCCC1 [cyclopentane] + Cc1ccccc1C
Conditions	mass density, [2] [kg/m3]	refractive index, [1]	speed of sound, [2] [m/s]
298.15 K, x1 = 0.045	870.7	1.49951	1342
298.15 K, x1 = 0.0924	865.7	1.49549	1336
298.15 K, x1 = 0.1949	854.1	1.48698	1319
298.15 K, x1 = 0.2932	842.5	1.4791	1304
298.15 K, x1 = 0.3903	830.4	1.47003	1289
298.15 K, x1 = 0.4954	816.6	1.46059	1273
298.15 K, x1 = 0.594	802.9	1.4507	1259
298.15 K, x1 = 0.6958	788.1	1.43935	1244
298.15 K, x1 = 0.7939	773	1.42832	1231
298.15 K, x1 = 0.8926	757.3	1.41649	1217
298.15 K, x1 = 0.9503	747.9	1.40949	1210
298.15 K, x1 = 1	740	1.40292	1204
313.15 K, x1 = 0.072	855	1.48922	1277
313.15 K, x1 = 0.0931	852.7	1.48739	1274
313.15 K, x1 = 0.1919	841.5	1.47936	1257
313.15 K, x1 = 0.2934	829.3	1.47048	1241
313.15 K, x1 = 0.3772	818.8	1.46299	1227
313.15 K, x1 = 0.4855	804.6	1.45278	1209
313.15 K, x1 = 0.5894	790.1	1.44238	1192
313.15 K, x1 = 0.685	776.2	1.43216	1177
313.15 K, x1 = 0.8099	756.9	1.41833	1158
313.15 K, x1 = 0.8912	743.6	1.40862	1146
313.15 K, x1 = 0.9479	734.1	1.402	1138
313.15 K, x1 = 1	725	1.39456	1130
